# Patent US7417025B2, “Use of poly-α2,8-sialic acid mimetic peptides to modulate NCAM functions” (Centre National de la Recherche Scientifique, priority 2002, dated 2008)
# “Also recorded” adds a separate entry of the source.
# Assays:
# chick retina axons = experiment: Intravitreal injection in chick embryo, retinal whole mount: axon fasciculation and guidance in vivo; details: injected into chicken embryo eyes at E3, retina observed at E9
# Experimental: The dashed rectangle indicates the area from which photographs were taken. Arrows point toward the optic fissure. Axons of E9 chick retina injected at E3 with the reverse peptide (C,F) or the p65 peptide (D,G,E,H). Arrowheads show examples of axons that leave their fascicle and run perpendicularly to it.
# Injections were performed as described in Monnier et al. (Developmental Biology, 2001, 229, 1-14). Briefly, a 2×2 cm window was cut into the shell over E3 chick embryos. One μl of Fast green with 10 mM of p65 or reverse peptide was injected into the right eye vitreous body using a capillary. After a five-days incubation at 37° C., (E8) retinae were dissected, spread onto nitrocellulose filters (MILIPORE), and fixed with 4% paraformaldehyde solution in PBS. Two small DiI (1,1′-dioctadecyl-3,3,3′,3′-tetramethylindocarbocyanine perchlorate) crystals were applied dorsally to the optic fissure. Retinae were stored in the dark at 37° C. for 10 days until the dye reached the axonal growth cones in the fissure, mounted in glycerol:PBS (9:1, v:v) and analysed using confocal microscopy.
# [1] = system: 30H12 monoclonal antibody; experiment: Competitive binding to PSA-NCAM expressing cells (30H12); set-up: dose or concentration left out as unconfirmed
# Experimental: FIGS. 12B, 12C and 12D: competitive binding to PSA-NCAM expressing cells. B: pre-incubation of p65 (1 mM) or p66 (1 mM) with MenB anti-PSA antibody. C: 30H12 anti-PSA antibody without peptide. […]
# (§1) The specificity of p65 and p66 peptides was tested in a competition assay using anti-PSA antibodies and PSA-NCAM expressing cells. […] The binding specificity was examined in greater detail by testing peptide recognition by another anti-PSA mononclonal antibody (MenB). […] Thus, p65 and p66 mimotopes appear to be specific for a unique (idiotypic) determinant.
# [2] = system: Mouse dorsal root ganglion explants (E13.5); experiment: Dorsal root ganglion explant culture: neurite outgrowth and fasciculation; type: cell-based
# Experimental: E13.5 DRGs were dissected out from mice embryos in HBSS medium and seeded on glass coverslips coated with polylysine or with peptides linked to BSA. Explants were cultured in the presence or the absence of the peptides under soluble form (40 μM) in two ml of neurobasal medium (DMEM/Ham's F12, 3:1 (V/V), GIBCO, buffered with 20 mM Hepes), supplemented as described in Faivre-Sarrailh et al., J. Cell. Sci., 1999, 18, 3015-3027 and Chazal et al., J.Neurosci., 2000, 20, 1446-1457.
# Fixed DRGs (Dorsal Root ganglia) explants and sections were incubated at 4° C. respectively 2 hr with an anti-neurofilament (SMI-31, dilution 1:800, STERNBERGER MONOCLONALS) and overnight with an anti-PSA antibody (dilution 1:200, Rougon et al, J. Cell. Biol., 1986, 103, 2429-2437). Revelation was performed by 1 hr incubation with the corresponding fluorescent-labeled secondary antibody (Goat anti-mouse IgM or IgG conjugated with texas red, IMMUNOTECH)
# (§2) After 48 h in culture, explants were examining directly (SVZ) or after overnight fixation with a 4% paraformaldehyde solution in PBS and immunostaining (DRGs). Observation was done using 2, 5×, 5×, 10× and 32× objectives (Axiovert 35M, ZEISS). Images were collected with a video camera (Cool View, PHOTONIC SCIENCE) and analysed using image-processing software (Visiolab1000, BIOCOM). Mean migration distance (calculated on five different experiments, including at least five explants per condition) or mean length of the longest neurite (calculated on two different experiments, including at least eight explants per condition), was the distance in micrometers between the explant edge and the border of the cell migration front. Four measurements were performed for each explant. The significance of the differences between the control and the different experimental conditions was calculated by Student's t test.
# Mouse dorsal root ganglion explants (E13.5) were cultured in the presence of p65 and p66 cyclic mimetic peptides, either in soluble form or coated on the microplates as BSA conjugates. Cells cultured in the absence of peptides or in the presence of reverse peptides (coated or in soluble form) were used as controls.
# [3] = system: subventricular zone explants (neuronal precursors); experiment: Subventricular zone (SVZ) explant culture: cell migration in vitro; type: cell-based, mouse; details: 0.4 μM peptide
# 30H12 antibody = experiment: ELISA with peptide-BSA conjugate on 30H12-coated plates; type: binding; details: no competitor, FIG. 12A
# Text: FIG. 12A: ELISA using 30H12 anti-PSA monoclonal antibody-coated plates.
# The specificity of the cyclic peptides was investigated in an ELISA assay using plates coated with 30H12 antibody, following the protocol as described above for the competitive ELISA, with the exception that the competitor was omitted.
# MenB anti-PSA antibody = experiment: Competitive binding to PSA-NCAM expressing cells (MenB)
# Experimental: FIGS. 12B, 12C and 12D: competitive binding to PSA-NCAM expressing cells. B: pre-incubation of p65 (1 mM) or p66 (1 mM) with MenB anti-PSA antibody. C: 30H12 anti-PSA antibody without peptide. D: pre-incubation of p65 (1 mM) or p66 (1 mM) with 30H12 anti-PSA antibody.
# as §1
# [4] = system: subventricular zone explants (neuronal precursors); experiment: Subventricular zone (SVZ) explant culture: cell migration in vitro; type: cell-based, mouse
# Experimental: Cultures of SVZ explants were performed as described in Chazal et al., precited. Briefly, 1-day-old mice were killed by rapid decapitation. Brains were dissected out and sectionned by Vibratome (Leica). The SVZ from the lateral wall of the anterior lateral ventricle horn was dissected out in HBSS medium (LIFE TECHNOLOGIES) and cut into 200-300 μm diameter explants. The explants were mixed with Matrigel (BECKTON DICKINSON) and cultured in four-well dishes. After polymerisation, the gel was overlaid with 400 μl of serum-free medium containing B-27 supplement (LIFE TECHNOLOGIES), in the presence or the absence of 40 μM of peptides (p65, p66, reverse p65, p21 or p22) and 70 U of Endo N per milliliter.
# as §2
# [5] = peptide in coated form (BSA conjugate)
# [6] = peptide in soluble form (40 μM), versus controls
sequence,measurement,setting,value
CSKIASMETGCG [p66],Axon guidance and fasciculation in retina in vivo,chick retina axons,axons guidance and fasciculation defects
same,Binding of 30H12 monoclonal antibody to PSA-NCAM expressing cells after pre-incubation with peptide,[1],prevented its binding
same,Fasciculation,[2]; [5],opposite effect on fasciculation
same,Neurite outgrowth,[2]; [5],no effect on neurite outgrowth; also recorded: no significant increase
same,Axonal growth,[2]; [6],significant increase in axonal growth
same,Fasciculation of axon bundles,[2]; [6],clear defasciculation of axon bundles
same,Increase of neurite outgrowth compared to the controls,"[2]; peptide in soluble form, mean length of the longest neurite",21%
same,Increase in the rate of migration of the neuronal precursors compared with the control without peptide,[3],+26%
same,Binding of cyclic peptides to 30H12 antibody in ELISA,30H12 antibody,highest binding
same,Recognition of PSA-NCAM by MenB after pre-incubation with peptide,MenB anti-PSA antibody; FIG. 12C,did not prevent recognition of PSA-NCAM
same,Antibody specificity of peptide binding (30H12 versus MenB),MenB anti-PSA antibody; in words,bind only to 30H12
same,Rate of migration of the neuronal precursors and chain-like arrangement,"[4]; SVZ explants in Matrigel, FIG. 4",increases the rate of migration
same,PSA-dependence of the migration effect,[4]; with endo N treatment,abolished by endo N treatment
